Source: patent US12582654B2, “Cyano-substituted pyridine and cyano-substituted pyrimidine compound and preparation method therefor and application thereof” (BEIJING SCITECH-MQ PHARMACEUTICALS LIMITED, priority 2019, dated 2026)

Experiments:
Ba/F3 ETV6-FGFR4 cells = target: T1, Ba/F3 ETV6-FGFR4 cells (Homo sapiens, UniProt P22455); experiment: Inhibition of cell proliferation (CCK-8), Ba/F3 ETV6-FGFR4 cells; format: cell-based; conditions: 72 hours of incubation, read-out: Ba/F3 ETV6-FGFR4 IC50
T1 construct: fused on or other part: N-terminal part of ETV6 (TEL), the oligomerising partner that makes the FGFR4 kinase constitutively active; P41212 (Transcription factor ETV6)
Procedure, shortened: (§1)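 Ba/F3 cells expressing ETV6-FGFR4 or ETV6-FGFR4-V550L exposed for 72 h to 9 concentrations from 4-fold serial dilution (0.25% DMSO final). Viability by CCK-8, OD 450 nm after 1–2 h at 37 °C, relative to untreated and cell-free blanks; IC50 from curve fitting.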

[1] = target: T2, Ba/F3 ETV6-FGFR4-V550L cells (Homo sapiens, UniProt P22455, V550L, cells depend on it); experiment: Inhibition of cell proliferation (CCK-8), Ba/F3 ETV6-FGFR4-V550L cells; format: cell-based; conditions: 72 hours of incubation, read-out: Ba/F3 ETV6-FGFR4-V550L IC50
T2 construct: fused on or other part: N-terminal part of ETV6 (TEL), the oligomerising partner of the fusion; already named as the first entry; P41212 (Transcription factor ETV6)
Procedure, shortened: as §1

FGFR4 kinase = FGFR4 kinase (Homo sapiens, UniProt P22455); experiment: Inhibition of FGFR4 kinase activity (ULight-labeled JAK-1 peptide, EU665/EU615 reading); format: biochemical; conditions: FGFR4 kinase 3.85 nM, ATP 100 μM, enzymatic reaction 2 hours
Procedure, shortened: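 TR-FRET kinase assay using 3.85 nM FGFR4, 100 μM ATP and 100 nM ULight-JAK-1 (Tyr1023) peptide; 5 min enzyme–compound preincubation, then 2 h at room temperature. Compounds at 11 3-fold dilutions from 2.5 μM down to 0.042 nM, 1% DMSO. IC50 from EU665/EU615 ratio inhibition curves.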

FGFR4 V550L kinase = FGFR4 V550L kinase (Homo sapiens, UniProt P22455, V550L); experiment: Inhibition of FGFR4 V550L mutant kinase activity (ULight-labeled PolyGT, EU665/EU615 reading); format: biochemical; conditions: FGFR4 V550L kinase 1 nM, ATP 10 μM, enzymatic reaction 2 hours
Procedure, shortened: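 TR-FRET kinase assay: 1 nM FGFR4 V550L, 10 μM ATP, 100 nM ULight-PolyGT substrate, 2 h at room temperature after 5 min compound–enzyme preincubation, 1% DMSO. Compound tested as 11-point 3-fold dilution from 2.5 μM to 0.042 nM final. Signal as EU665/EU615 ratio; IC50 fitted from % inhibition.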

[2] = mouse and monkey animal models; cited from earlier work
[3] = tested on: FGF19 gene-amplified cells; conditions: cited from earlier work
FGFR = conditions: cited from earlier work
each subtype of FGFR = conditions: cited from earlier work

FGFR4 kinase, sequence (P22455 22-802): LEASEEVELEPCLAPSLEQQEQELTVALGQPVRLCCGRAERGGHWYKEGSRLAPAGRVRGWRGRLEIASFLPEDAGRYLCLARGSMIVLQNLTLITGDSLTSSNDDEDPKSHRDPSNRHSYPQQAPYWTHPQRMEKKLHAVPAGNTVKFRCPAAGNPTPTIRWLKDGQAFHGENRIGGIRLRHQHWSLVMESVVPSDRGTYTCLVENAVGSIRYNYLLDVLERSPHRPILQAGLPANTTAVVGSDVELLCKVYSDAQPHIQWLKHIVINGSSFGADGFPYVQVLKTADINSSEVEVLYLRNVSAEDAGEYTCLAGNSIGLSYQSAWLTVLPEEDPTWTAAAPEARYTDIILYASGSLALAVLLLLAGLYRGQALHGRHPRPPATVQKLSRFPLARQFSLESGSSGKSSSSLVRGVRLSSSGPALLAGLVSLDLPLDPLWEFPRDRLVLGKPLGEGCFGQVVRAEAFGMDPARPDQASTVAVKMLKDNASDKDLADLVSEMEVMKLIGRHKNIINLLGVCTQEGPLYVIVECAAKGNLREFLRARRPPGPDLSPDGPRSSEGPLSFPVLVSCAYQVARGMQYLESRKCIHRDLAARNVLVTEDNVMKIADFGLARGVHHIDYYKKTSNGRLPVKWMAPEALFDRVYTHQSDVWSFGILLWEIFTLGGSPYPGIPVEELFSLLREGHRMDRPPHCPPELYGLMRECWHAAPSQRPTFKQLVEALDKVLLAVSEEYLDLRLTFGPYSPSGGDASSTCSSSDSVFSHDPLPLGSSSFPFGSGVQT
FGFR4 V550L kinase, sequence (P22455 22-802 V550L): as the sequence (P22455 22-802) above, with V529L counted along it
T2 sequence (P22455 whole entry V550L, the tested form may be a part): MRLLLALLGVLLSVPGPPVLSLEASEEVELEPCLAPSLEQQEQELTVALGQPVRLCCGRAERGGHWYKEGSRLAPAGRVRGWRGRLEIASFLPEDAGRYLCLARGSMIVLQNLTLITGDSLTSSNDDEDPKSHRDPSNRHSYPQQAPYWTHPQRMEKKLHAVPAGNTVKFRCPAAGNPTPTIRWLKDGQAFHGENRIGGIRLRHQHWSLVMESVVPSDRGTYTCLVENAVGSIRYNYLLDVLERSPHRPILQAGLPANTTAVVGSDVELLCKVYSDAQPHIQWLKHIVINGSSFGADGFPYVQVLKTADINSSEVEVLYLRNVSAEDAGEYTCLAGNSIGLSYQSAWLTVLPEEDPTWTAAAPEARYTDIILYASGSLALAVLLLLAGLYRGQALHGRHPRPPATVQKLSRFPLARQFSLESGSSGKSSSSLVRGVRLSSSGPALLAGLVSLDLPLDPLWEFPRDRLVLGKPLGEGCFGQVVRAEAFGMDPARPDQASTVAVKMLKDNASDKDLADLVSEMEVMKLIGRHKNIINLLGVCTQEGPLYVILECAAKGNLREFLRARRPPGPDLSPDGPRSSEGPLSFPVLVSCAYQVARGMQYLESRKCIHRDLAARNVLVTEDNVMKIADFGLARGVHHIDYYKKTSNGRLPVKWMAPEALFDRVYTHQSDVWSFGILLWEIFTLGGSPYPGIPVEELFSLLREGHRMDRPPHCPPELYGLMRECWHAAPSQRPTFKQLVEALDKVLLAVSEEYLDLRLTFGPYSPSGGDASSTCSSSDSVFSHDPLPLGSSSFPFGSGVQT
T1 sequence (P22455 whole entry, change not shown, the tested form may be a part): as the sequence (P22455 whole entry V550L, the tested form may be a part) above, with L550V counted along it

GI50 (Ba/F3 ETV6-FGFR4 cells) [µM]	GI50 [1] [µM]	IC50 (FGFR4 kinase) [µM]	IC50 (FGFR4 V550L kinase) [µM]	Structure (SMILES)	bile acid-related adverse effects [2]	antitumor activity against FGF19 gene-amplified cells [3]	FGFR inhibitory activity (FGFR)	enzymatic inhibitory activity against each subtype of FGFR (each subtype of FGFR)
≤ 0.01	≤ 0.01	≤ 0.01	≤ 0.01	C=CC(=O)Nc1cc(N2CCC(N(C)CCCO)CC2)ccc1Nc1ncc(C#N)c(Nc2ccccc2OC(C)C)n1 [Example 68, N-(2-((5-cyano-4-((2-isopropoxyphenyl)amino)pyrimidin-2-yl)amino)-5-(4-((3-hydroxypropyl) (methyl)amino)piperidin-1-yl)phenyl) acrylamide]	–	–	–	–
≤ 0.01	≤ 0.01	≤ 0.01	≤ 0.01	C=CC(=O)Nc1cc(N2CCC(N(C)CCCOC)CC2)ccc1Nc1ncc(C#N)c(Nc2ccccc2OC(C)C)n1 [Example 69, N-(2-((5-cyano-4-((2-isopropoxyphenyl)amino)pyrimidin-2-yl)amino)-5-(4-((3-methoxypropyl) (methyl)amino)piperidin-1-yl)phenyl) acrylamide]	–	–	–	–
≤ 0.01	≤ 0.01	0.05 to 0.1	≤ 0.01	C=CC(=O)Nc1cc(N2CCC(N3CCC3)CC2)ccc1Nc1ncc(C#N)c(Nc2ccccc2OC(C)C)n1 [Example 70, N-(5-(4-(azetidin-1-yl)piperidin-1-yl)-2-((5-cyano-4-((2-isopropoxyphenyl)amino)pyrimidin-2-yl)amino)phenyl) acrylamide]	–	–	–	–
≤ 0.01	0.01 to 0.05	≤ 0.01	0.05 to 0.1	C=CC(=O)Nc1cc(N2CCC(N3CCC(F)(F)CC3)CC2)ccc1Nc1ncc(C#N)c(Nc2ccccc2OC(C)C)n1 [Example 71, N-(2-((5-cyano-4-((2-isopropoxyphenyl)amino)pyrimidin-2-yl)amino)-5-(4,4-difluoro-[1,4-bipiperidin]-1′-yl)phenyl) acrylamide]	–	–	–	–
≤ 0.01	≤ 0.01	≤ 0.01	0.01 to 0.05	C=CC(=O)Nc1cc(N2CCC(N(C)C3COC3)CC2)ccc1Nc1ncc(C#N)c(Nc2ccccc2OC(C)C)n1 [Example 72, N-(2-((5-cyano-4-((2-isopropoxyphenyl)amino)pyrimidin-2-yl)amino)-5-(4-(methyl(oxetan-3-yl)amino)piperidin-1-yl)phenyl) acrylamide]	–	–	–	–
≤ 0.01	≤ 0.01	≤ 0.01	≤ 0.01	C=CC(=O)Nc1cc(N2CCC(N(C)CCSC)CC2)ccc1Nc1ncc(C#N)c(Nc2ccccc2OC(C)C)n1 [Example 73]	–	–	–	–
≤ 0.01	0.01 to 0.05	≤ 0.01	≤ 0.01	C=CC(=O)Nc1cc(N2CCC(N(C)CCCSC)CC2)ccc1Nc1ncc(C#N)c(Nc2ccccc2OC(C)C)n1 [Example 74]	–	–	–	–
≤ 0.01	≤ 0.01	≤ 0.01	≤ 0.01	C=CC(=O)Nc1cc(N2CCC(N(C)CCCS(C)(=O)=O)CC2)ccc1Nc1ncc(C#N)c(Nc2ccccc2OC(C)C)n1 [Example 75, N-(2-((5-cyano-4-((2-isopropoxyphenyl)amino)pyrimidin-2-yl)amino)-5-(4-(methyl(3-(methylsulfonyl)propyl)amino)piperidin-1-yl)phenyl) acrylamide]	–	–	–	–
≤ 0.01	≤ 0.01	0.01 to 0.05	0.01 to 0.05	C=CC(=O)Nc1cc(N2CCC(N3CCS(=O)(=O)CC3)CC2)ccc1Nc1ncc(C#N)c(Nc2ccccc2OC(C)C)n1 [Example 76, N-(2-((5-cyano-4-((2-isopropoxyphenyl)amino)pyrimidin-2-yl)amino)-5-(4-(1,1-dioxidothiomorpholino)piperidin-1-yl)phenyl) acrylamide]	–	–	–	–
≤ 0.01	≤ 0.01	≤ 0.01	≤ 0.01	C=CC(=O)Nc1cc(N2CCC(N(C)C3CCOC3)CC2)ccc1Nc1ncc(C#N)c(Nc2ccccc2OC(C)C)n1 (stereo not drawn) [Example 77, N-(2-((5-cyano-4-((2-isopropoxyphenyl)amino)pyrimidin-2-yl)amino)-5-(4-(methyl (tetrahydrofuran-3-yl)amino)piperidin-1-yl)phenyl) acrylamide]	–	–	–	–
≤ 0.01	≤ 0.01	≤ 0.01	≤ 0.01	C=CC(=O)Nc1cc(N2CCC(N(C)C3CCOCC3)CC2)ccc1Nc1ncc(C#N)c(Nc2ccccc2OC(C)C)n1 [Example 78, N-(2-((5-cyano-4-((2-isopropoxyphenyl)amino)pyrimidin-2-yl)amino)-5-(4-(methyl(tetrahydro-2H-pyran-4-yl)amino)piperidin-1-yl)phenyl) acrylamide]	–	–	–	–
0.01 to 0.05	0.01 to 0.05	0.01 to 0.05	0.05 to 0.1	C=CC(=O)Nc1cc(N2CCC(N3CCN(C)CC3)CC2)ccc1Nc1ncc(C#N)c(Nc2ccccc2CC(C)C)n1 [Example 79, N-(2-((5-cyano-4-((2-isobutylphenyl)amino)pyrimidin-2-yl)amino)-5-(4-(4-methylpiperazin-1-yl)piperidin-1-yl)phenyl)acrylamide]	–	–	–	–
≤ 0.01	≤ 0.01	≤ 0.01	≤ 0.01	C=CC(=O)Nc1cc(N2CCC(N3CCN(C)CC3)CC2)ccc1Nc1ncc(C#N)c(Nc2ccccc2S(=O)(=O)C(C)C)n1 [Example 80, N-(2-((5-cyano-4-((2-(isopropylsulfonyl)phenyl)amino)pyrimidin-2-yl)amino)-5-(4-(4-methylpiperazin-1-yl)piperidin-1-yl)phenyl) acrylamide]	–	–	–	–
≤ 0.01	≤ 0.01	≤ 0.01	≤ 0.01	C=CC(=O)Nc1cc(N2CCC(N3CCN(C)CC3)CC2)ccc1Nc1ncc(C#N)c(Nc2ccccc2SC(C)C)n1 [Example 81]	–	–	–	–
–	–	–	–	C=CC(=O)Nc1cc(N2CCN(CC)CC2)ccc1Nc1cc(N(C)C(=O)Nc2c(Cl)c(OC)cc(OC)c2Cl)ncn1 [Example H3B6527]	without bile acid-related adverse effects	strong antitumor activity	–	–
–	–	–	–	CCN(CC)CCCCNc1ncc2cc(-c3cc(OC)cc(OC)c3)c(NC(=O)NC(C)(C)C)nc2n1 [PD173074]	–	–	nanomolar inhibitory activity	–
–	–	–	–	C=CC(=O)N1CCN(CCCn2c(=O)c(-c3c(Cl)c(OC)cc(OC)c3Cl)cc3cnc(NC)nc32)CC1 [PRN-1371]	–	–	–	nanomolar levels
